Molecular target: SARS-CoV-2 PL^pro (Severe acute respiratory syndrome coronavirus 2, UniProt P0DTD1)
Type: biochemical

## CN(C)c1ccc2cc3ccc(N(C)C)cc3nc2c1 [acridine orange base]
  dose-dependent inhibition of PL^pro, compared with ACF: less active than the parent compound

## Nc1ccc2cc3ccc(N)cc3nc2c1.O=S(=O)(O)O [acridine-3,6-diamine sulfate]
  dose-dependent inhibition of PL^pro, compared with ACF: less active than the parent compound

— paper PMC8751734 (Cell Chemical Biology, 2022)
